The text below walks through data of patent publication US20200339691A1, “PROTEINACEOUS MOLECULES AND USES THEREFOR” (priority 2018, published 2020).

For one test, the target named is T1, p300 (Homo sapiens, UniProt Q09472).
T1 construct: endogenous in cells; host or cells: MDA-MB-231
Nature of the test: Immunofluorescence of p300 localization in MDA-MB-231 cells. It counts as cell-based. To be noted: 50 μM. The method, then:
The effect of P1, P2, P3 and P4 (synthesized in accordance with Example 5) on p300 localization was examined using confocal laser scanning microscopy. […] Cover slips were mounted on glass microscope slides with ProLong Diamond Antifade reagent (Life Technologies). Protein targets were localized by confocal laser scanning microscopy as described above. TNFI and PCC(r) were calculated using ImageJ software as previously described.

Another test concerns 5-methylcytosine. Nature of the test: Immunofluorescence of 5-methylcytosine in MDA-MB-231 cells. It counts as cell-based, human. To be noted: 50 μM, 72 hours. The method, then:
(§1) 1×10^4 MDA-MB-231 cells were seeded onto coverslips in 12 well plates with DMEM media. Cells were treated with 50 μM P1, P2, P3 or P4 (synthesized in accordance with Example 5) or vehicle (water) for 72 hours. Cells were fixed with 3.7% formaldehyde and permeabilized with 2% Triton-X-100, then probed with primary mouse antibodies to CSV, DMNT1, H3K9me3 or 5-methylcytosine; primary goat antibodies to SNAI1, SETDB1 or ABCB5; or primary rabbit antibodies to PD-L1, EGFR, EHMT2; followed by the corresponding secondary antibody conjugated to anti-mouse Alexa-Fluor 568, anti-goat Alexa-Fluor 633 or anti-rabbit Alexa-Fluor 488. Confocal laser scanning microscopy was used to measure the TFI, TNFI and TCFI as described above. At least 20 individual cells were analyzed per sample.

Another test has as its system ABCBS. Nature of the test: Immunofluorescence of ABCBS in MDA-MB-231 cells. It counts as cell-based, human. To be noted: 50 μM, 72 hours. The method, then:
as §1

For the next test, the system named is H3K9me3. Kind of test: Immunofluorescence of H3K9me3 in MDA-MB-231 cells. It counts as cell-based, human. The note with it: 50 μM, 72 hours. The method, then:
as §1

SMILES strings stand for the structures. Entries after “also recorded” stand apart in the source; their conditions may differ. Where a SMILES comes first, the peptide text is derived from it. The star is where a group is joined. Myristoyl = CCCCCCCCCCCCCC(=O)*

T1 sequence (Q09472 whole entry): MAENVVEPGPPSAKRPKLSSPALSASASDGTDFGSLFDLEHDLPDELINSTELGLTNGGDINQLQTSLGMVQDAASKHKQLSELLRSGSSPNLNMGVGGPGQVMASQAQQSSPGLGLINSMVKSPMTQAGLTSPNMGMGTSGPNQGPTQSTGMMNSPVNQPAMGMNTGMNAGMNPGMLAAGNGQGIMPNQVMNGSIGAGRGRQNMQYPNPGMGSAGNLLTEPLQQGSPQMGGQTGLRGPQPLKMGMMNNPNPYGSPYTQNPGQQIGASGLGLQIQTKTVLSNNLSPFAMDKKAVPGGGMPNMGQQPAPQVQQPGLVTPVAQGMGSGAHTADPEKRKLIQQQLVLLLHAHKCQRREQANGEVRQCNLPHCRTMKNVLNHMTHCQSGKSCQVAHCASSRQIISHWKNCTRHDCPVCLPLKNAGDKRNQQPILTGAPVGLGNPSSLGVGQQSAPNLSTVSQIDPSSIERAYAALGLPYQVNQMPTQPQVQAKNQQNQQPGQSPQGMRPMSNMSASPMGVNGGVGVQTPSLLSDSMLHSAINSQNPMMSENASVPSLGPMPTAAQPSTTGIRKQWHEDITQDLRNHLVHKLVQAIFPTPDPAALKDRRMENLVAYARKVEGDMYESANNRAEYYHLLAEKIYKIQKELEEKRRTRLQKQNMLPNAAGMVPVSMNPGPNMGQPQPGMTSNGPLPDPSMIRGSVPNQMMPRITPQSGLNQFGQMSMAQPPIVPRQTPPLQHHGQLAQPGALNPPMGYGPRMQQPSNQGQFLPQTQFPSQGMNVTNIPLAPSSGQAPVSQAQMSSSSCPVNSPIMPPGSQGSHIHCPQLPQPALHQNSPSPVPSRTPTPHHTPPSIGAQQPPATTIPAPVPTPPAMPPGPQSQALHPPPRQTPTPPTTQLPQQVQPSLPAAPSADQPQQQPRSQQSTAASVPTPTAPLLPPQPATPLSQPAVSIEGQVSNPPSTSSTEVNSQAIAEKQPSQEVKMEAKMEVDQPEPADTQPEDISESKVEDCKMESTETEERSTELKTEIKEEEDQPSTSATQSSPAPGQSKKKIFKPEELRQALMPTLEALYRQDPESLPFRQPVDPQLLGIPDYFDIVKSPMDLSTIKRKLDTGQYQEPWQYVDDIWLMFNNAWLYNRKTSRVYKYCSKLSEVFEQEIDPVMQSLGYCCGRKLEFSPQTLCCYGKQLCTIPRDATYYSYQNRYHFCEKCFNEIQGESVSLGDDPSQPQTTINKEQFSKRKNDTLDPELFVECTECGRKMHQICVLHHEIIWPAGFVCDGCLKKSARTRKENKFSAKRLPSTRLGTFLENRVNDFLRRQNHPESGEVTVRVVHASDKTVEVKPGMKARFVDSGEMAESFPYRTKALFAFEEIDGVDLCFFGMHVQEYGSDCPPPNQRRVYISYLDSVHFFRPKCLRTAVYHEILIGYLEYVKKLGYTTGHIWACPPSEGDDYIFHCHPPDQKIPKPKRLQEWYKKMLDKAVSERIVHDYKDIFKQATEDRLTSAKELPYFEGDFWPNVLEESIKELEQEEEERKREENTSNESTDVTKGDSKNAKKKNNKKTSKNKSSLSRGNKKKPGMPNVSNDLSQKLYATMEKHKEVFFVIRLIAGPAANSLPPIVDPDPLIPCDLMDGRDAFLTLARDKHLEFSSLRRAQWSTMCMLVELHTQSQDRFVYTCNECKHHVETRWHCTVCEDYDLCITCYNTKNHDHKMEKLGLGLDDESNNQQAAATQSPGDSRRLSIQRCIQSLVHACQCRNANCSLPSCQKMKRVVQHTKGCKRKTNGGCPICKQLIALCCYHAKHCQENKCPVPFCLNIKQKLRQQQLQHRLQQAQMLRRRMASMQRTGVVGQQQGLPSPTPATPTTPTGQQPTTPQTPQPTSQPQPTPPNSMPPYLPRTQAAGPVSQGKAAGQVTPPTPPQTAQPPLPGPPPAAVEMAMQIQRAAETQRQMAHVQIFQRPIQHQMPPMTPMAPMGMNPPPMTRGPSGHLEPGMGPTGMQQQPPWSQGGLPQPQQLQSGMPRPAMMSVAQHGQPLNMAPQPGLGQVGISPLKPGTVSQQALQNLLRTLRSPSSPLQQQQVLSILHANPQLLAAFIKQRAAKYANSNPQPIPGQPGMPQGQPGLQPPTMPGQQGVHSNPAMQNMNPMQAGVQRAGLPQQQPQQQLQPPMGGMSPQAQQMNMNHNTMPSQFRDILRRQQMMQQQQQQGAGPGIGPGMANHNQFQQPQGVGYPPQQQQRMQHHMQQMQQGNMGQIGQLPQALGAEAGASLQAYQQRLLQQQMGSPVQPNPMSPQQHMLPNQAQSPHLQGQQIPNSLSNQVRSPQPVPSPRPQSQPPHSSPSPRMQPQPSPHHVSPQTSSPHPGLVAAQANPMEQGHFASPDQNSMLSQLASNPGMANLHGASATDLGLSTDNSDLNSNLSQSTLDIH

With `CCCCCCCCCCCCCC(=O)N[C@@H](CC(C)C)C(=O)N[C@H](C(=O)N[C@@H](Cc1ccccc1)C(=O)N[C@H](C(=O)N[C@@H](Cc1ccccc1)C(=O)N[C@@H](CCCNC(=N)N)C(=O)N[C@@H](CC(C)C)C(=O)N[C@@H](CCCNC(=N)N)C(=O)N[C@@H](CCC(N)=O)C(=O)NCC(=O)N[C@@H](CCCNC(=N)N)C(=O)N[C@@H](CCSC)C(=O)N[C@@H](CCSC)C(=O)N[C@@H](CC(=O)O)C(=O)N[C@H](C(=O)N[C@@H](CCCCN)C(=O)N[C@@H](CCCCN)C(N)=O)C(C)C)[C@@H](C)CC)[C@@H](C)O` [Peptide P2, Myristoyl-LTFIFRLRQGRMMDVKK-NH2] (Myristoyl-LTFIFRLRQGRMMDVKK-NH2), at p300, the p300 nuclear expression result was “significantly decreased”.
With `CCCCCCCCCCCCCC(=O)N[C@@H](CC(C)C)C(=O)N[C@H](C(=O)N[C@@H](Cc1ccccc1)C(=O)N[C@H](C(=O)N[C@@H](Cc1ccccc1)C(=O)N[C@@H](CCCNC(=N)N)C(=O)N[C@@H](CC(C)C)C(=O)N[C@@H](CCCNC(=N)N)C(=O)N[C@@H](CCCCNC(C)=O)C(=O)NCC(=O)N[C@@H](CCCNC(=N)N)C(=O)N[C@@H](CCSC)C(=O)N[C@@H](CCSC)C(=O)N[C@@H](CC(=O)O)C(=O)N[C@H](C(=O)N[C@@H](CCCCN)C(=O)N[C@@H](CCCCN)C(N)=O)C(C)C)[C@@H](C)CC)[C@@H](C)O` [Peptide P3, Myristoyl-LTFIFRLRK(Ac)GRMMDVKK-NH2] (Myristoyl-LTFIFRLRK(Ac)GRMMDVKK-NH2), in the test with 5-methylcytosine, the “expression of 5-methylcytosine” value is on record as “strongly inhibited”. In the test on ABCBS, the “expression of ABCBS” value is given as “strongly inhibited”. Besides, the p300 nuclear expression entry at p300 is listed as “significantly decreased; also recorded: greatest effect”. Moreover, the “expression of H3K9me3” value in the test with H3K9me3 was “strongly inhibited”.
On to `CCCCCCCCCCCCCC(=O)N[C@@H](CC(C)C)C(=O)N[C@H](C(=O)N[C@@H](Cc1ccccc1)C(=O)N[C@H](C(=O)N[C@@H](Cc1ccccc1)C(=O)N[C@@H](CCCNC(=N)N)C(=O)N[C@@H](CC(C)C)C(=O)N[C@@H](CCCNC(=N)N)C(=O)N[C@@H](CCCCN)C(=O)NCC(=O)N[C@@H](CCCNC(=N)N)C(=O)N[C@@H](CCSC)C(=O)N[C@@H](CCSC)C(=O)N[C@@H](CC(=O)O)C(=O)N[C@H](C(=O)N[C@@H](CCCCN)C(=O)N[C@@H](CCCCN)C(N)=O)C(C)C)[C@@H](C)CC)[C@@H](C)O` [Peptide P1, Myristoyl-LTFIFRLRKGRMMDVKK-NH2] (Myristoyl-LTFIFRLRKGRMMDVKK-NH2), for which, at p300, the p300 nuclear expression result is on record as “significantly decreased”.
